Assay results: paper PMC9021598, “Structural Basis of Human Dimeric α-Amino-β-Carboxymuconate-ε-Semialdehyde Decarboxylase Inhibition With TES-1025” (Frontiers in Molecular Biosciences, 2022)

Target: T1, human α-amino-β-carboxymuconate-ε-semialdehyde decarboxylase (ACMSD) (Homo sapiens, UniProt Q8TDX5)
T1 construct: recombinant hACMSD expressed in Pichia pastoris; homodimer
Test: X-ray co-crystal structure at […] Å; Ki from coupled spectrophotometric assay (Dixon tight-binding competitive inhibition)
Format: biochemical

T1 sequence (Q8TDX5 whole entry): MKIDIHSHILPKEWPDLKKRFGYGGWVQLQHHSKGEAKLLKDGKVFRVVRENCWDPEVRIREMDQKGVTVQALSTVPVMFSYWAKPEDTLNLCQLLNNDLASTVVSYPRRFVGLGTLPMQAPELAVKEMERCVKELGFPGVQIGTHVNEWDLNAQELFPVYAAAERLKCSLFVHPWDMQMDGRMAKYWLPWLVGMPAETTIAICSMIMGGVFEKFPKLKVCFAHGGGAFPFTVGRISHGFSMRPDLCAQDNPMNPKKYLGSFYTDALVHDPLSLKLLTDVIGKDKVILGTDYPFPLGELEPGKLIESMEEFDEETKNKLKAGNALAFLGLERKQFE

Ki: 850 ± 220 pM
SMILES: N#Cc1c(-c2cccs2)nc(SCc2cccc(CC(=O)O)c2)[nH]c1=O [compound 4, 2-[3-[(5-cyano-6-oxo-4-thiophen-2-yl-1H-pyrimidin-2-yl)sulfanylmethyl]phenyl]acetic acid]
